According to the NIST ThermoML archive (doi:10.1016/j.jct.2009.05.009):
± gives the expanded uncertainty stated by the source.

Experiment: xn = mol fraction of the nth substance listed
Details: 101.3 kPa, Liquid, Vibrating tube method

CCn1cc[n+](C)c1.O=S(=O)([N-]S(=O)(=O)C(F)(F)F)C(F)(F)F + O
mass density [kg/m3]
Details | 298.19 K | 323.17 K
x2 = 0 | 1519.3 ± 2.8 | 1494.7 ± 2.7
x2 = 0.0209 | 1518.3 ± 2.8 | –
x2 = 0.0353 | – | 1493.1 ± 2.7
x2 = 0.0499 | 1516.9 ± 2.7 | –
x2 = 0.0581 | – | 1492 ± 2.7
x2 = 0.0631 | 1516.2 ± 2.7 | –
x2 = 0.0834 | – | 1490.6 ± 2.6
x2 = 0.1164 | – | 1488.7 ± 2.6
x2 = 0.1205 | 1513 ± 2.6 | –
x2 = 0.1608 | 1510.7 ± 2.5 | –
x2 = 0.1611 | – | 1486.2 ± 2.5
x2 = 0.2032 | 1508.1 ± 2.5 | –
x2 = 0.2221 | – | 1482.4 ± 2.4
x2 = 0.3025 | 1501.3 ± 2.3 | –

O [water] + CCOS(=O)(=O)[O-].CCn1cc[n+](C)c1
x1 = 1
Details | mass density [kg/m3]
318.15 K | 990.1 ± 2
323.15 K | 988 ± 2
328.15 K | 985.7 ± 2
333.15 K | 983.2 ± 2
338.15 K | 980.5 ± 2
343.15 K | 977.8 ± 2

CCCCn1cc[n+](C)c1.F[B-](F)(F)F [1-butyl-3-methylimidazolium tetrafluoroborate] + O
mass density [kg/m3]
Details | x2 = 0 | x2 = 0.0895 | x2 = 0.195 | x2 = 0.308 | x2 = 0.4996 | x2 = 0.75 | x2 = 0.899
298.15 K | 1201.1 ± 2.3 | 1198.3 ± 2.3 | 1194.4 ± 2.2 | 1189.3 ± 2.2 | 1177.8 ± 2.2 | 1147.9 ± 2.7 | 1100.7 ± 3.7
303.15 K | 1197.4 ± 2.3 | 1194.6 ± 2.3 | 1190.9 ± 2.2 | 1185.8 ± 2.2 | 1173.9 ± 2.3 | 1143.8 ± 2.7 | 1097.2 ± 3.7
333.15 K | 1175.4 ± 2.3 | 1172.8 ± 2.2 | 1169 ± 2.2 | 1163.9 ± 2.2 | 1151.5 ± 2.3 | 1121 ± 2.7 | 1076.4 ± 3.6
